Assay results published in the CheMixHub viscosity set.

Assay: xn = mol fraction of the nth substance listed

CC(=O)CC(C)(C)O + CC(C)O
viscosity [mPa·s], 100 kPa
Conditions | x2 = 0.1 | x2 = 0.2 | x2 = 0.3 | x2 = 0.4 | x2 = 0.5 | x2 = 0.6 | x2 = 0.7 | x2 = 0.8 | x2 = 0.9
303.15 K | 2.39 | 2.29 | 2.19 | 2.09 | 2 | 1.91 | 1.84 | 1.78 | 1.75
323.15 K | 1.5 | 1.43 | 1.36 | 1.29 | 1.23 | 1.18 | 1.12 | 1.08 | 1.04

NS(=O)(=O)O + CS(C)=O
298 K, 101.33 kPa
Conditions | viscosity [mPa·s]
x1 = 0.02135 | 2.438
x1 = 0.04282 | 3.041
x1 = 0.06425 | 3.822
x1 = 0.08365 | 4.853

CCCCC + CO
Conditions | viscosity [mPa·s]
293.15 K, 101 kPa, x1 = 0.0471 | 0.5884
293.15 K, 101 kPa, x1 = 0.0999 | 0.5839
293.15 K, 101 kPa, x1 = 0.1602 | 0.5769
293.15 K, 101 kPa, x1 = 0.2288 | 0.5663
293.15 K, 101 kPa, x1 = 0.3074 | 0.5509
293.15 K, 101 kPa, x1 = 0.3999 | 0.5282
293.15 K, 101 kPa, x1 = 0.5084 | 0.4953
293.15 K, 101 kPa, x1 = 0.6397 | 0.4464
293.15 K, 101 kPa, x1 = 0.7999 | 0.3733
298.15 K, 101.33 kPa, x2 = 0.0464 | 0.245
298.15 K, 101.33 kPa, x2 = 0.0696 | 0.249
298.15 K, 101.33 kPa, x2 = 0.1597 | 0.265
298.15 K, 101.33 kPa, x2 = 0.2228 | 0.279
298.15 K, 101.33 kPa, x2 = 0.4412 | 0.327
298.15 K, 101.33 kPa, x2 = 0.6294 | 0.384
298.15 K, 101.33 kPa, x2 = 0.741 | 0.424
298.15 K, 101.33 kPa, x2 = 0.7958 | 0.445
298.15 K, 101.33 kPa, x2 = 0.9419 | 0.518
298.15 K, 101.33 kPa, x2 = 0.9734 | 0.537
303.15 K, 101 kPa, x1 = 0.0471 | 0.5267
303.15 K, 101 kPa, x1 = 0.0999 | 0.5186
303.15 K, 101 kPa, x1 = 0.1602 | 0.5081
303.15 K, 101 kPa, x1 = 0.2288 | 0.4945
303.15 K, 101 kPa, x1 = 0.3074 | 0.4767
303.15 K, 101 kPa, x1 = 0.3999 | 0.4529
303.15 K, 101 kPa, x1 = 0.5084 | 0.421
303.15 K, 101 kPa, x1 = 0.6397 | 0.3765
303.15 K, 101 kPa, x1 = 0.7999 | 0.3135
313.15 K, 101 kPa, x1 = 0.0471 | 0.5012
313.15 K, 101 kPa, x1 = 0.0999 | 0.4866
313.15 K, 101 kPa, x1 = 0.1602 | 0.4694
313.15 K, 101 kPa, x1 = 0.2288 | 0.4492
313.15 K, 101 kPa, x1 = 0.3074 | 0.4254
313.15 K, 101 kPa, x1 = 0.3999 | 0.3963
313.15 K, 101 kPa, x1 = 0.5084 | 0.3607
313.15 K, 101 kPa, x1 = 0.6397 | 0.3156
313.15 K, 101 kPa, x1 = 0.7999 | 0.2574

C[N+](C)(C)CCC[n+]1ccccc1.N#C[N-]C#N.N#C[N-]C#N + CC#N
100 kPa
Conditions | viscosity [mPa·s]
293.15 K, x1 = 0.1999 | 10.75
298.15 K, x1 = 0.0999 | 3.205
298.15 K, x1 = 0.1999 | 9.545
298.15 K, x1 = 0.4999 | 98.11
308.15 K, x1 = 0.2998 | 20.95
313.15 K, x1 = 0.2998 | 18.15
318.15 K, x1 = 0.7998 | 117.5

CC[C@@H](CO)NCCN[C@@H](CC)CO.Cl.Cl + O
298.15 K, 100 kPa
Conditions | viscosity [mPa·s]
x1 = 9.47e-06 | 0.8977
x1 = 1.925e-05 | 0.8983
x1 = 3.721e-05 | 0.8987
x1 = 9.087e-05 | 0.9011
x1 = 0.0001804 | 0.9029
x1 = 0.000898 | 0.9213
x1 = 0.001796 | 0.9443

CS(C)=O + Cc1ccccc1
Conditions | viscosity [mPa·s]
298.15 K, 101 kPa, x1 = 0.1 | 0.606
298.15 K, 101 kPa, x1 = 0.2 | 0.675
298.15 K, 101 kPa, x1 = 0.3 | 0.761
298.15 K, 101 kPa, x1 = 0.4 | 0.867
298.15 K, 101 kPa, x1 = 0.5 | 0.99
298.15 K, 101 kPa, x1 = 0.6 | 1.122
298.15 K, 101 kPa, x1 = 0.7 | 1.268
298.15 K, 101 kPa, x1 = 0.8 | 1.452
298.15 K, 101 kPa, x1 = 0.9 | 1.679
298.15 K, 101.3 kPa, x1 = 0.1025 | 0.609
298.15 K, 101.3 kPa, x1 = 0.2029 | 0.671
298.15 K, 101.3 kPa, x1 = 0.3843 | 0.838
298.15 K, 101.3 kPa, x1 = 0.504 | 0.964
298.15 K, 101.3 kPa, x1 = 0.6035 | 1.095
298.15 K, 101.3 kPa, x1 = 0.7049 | 1.25
298.15 K, 101.3 kPa, x1 = 0.7997 | 1.43
298.15 K, 101.3 kPa, x1 = 0.9017 | 1.686
302.4 K, 101 kPa, x1 = 0.0908 | 1.087
302.4 K, 101 kPa, x1 = 0.2568 | 1.399
302.4 K, 101 kPa, x1 = 0.4732 | 1.615
302.4 K, 101 kPa, x1 = 0.5996 | 2.242
302.4 K, 101 kPa, x1 = 0.7139 | 2.506
302.4 K, 101 kPa, x1 = 0.8665 | 3.234
303.15 K, 101.3 kPa, x1 = 0.1025 | 0.574
303.15 K, 101.3 kPa, x1 = 0.2029 | 0.636
303.15 K, 101.3 kPa, x1 = 0.3843 | 0.777
303.15 K, 101.3 kPa, x1 = 0.504 | 0.894
303.15 K, 101.3 kPa, x1 = 0.6035 | 1.01
303.15 K, 101.3 kPa, x1 = 0.7049 | 1.149
303.15 K, 101.3 kPa, x1 = 0.7997 | 1.309
303.15 K, 101.3 kPa, x1 = 0.9017 | 1.526
308.15 K, 101 kPa, x1 = 0.1 | 0.537
308.15 K, 101 kPa, x1 = 0.2 | 0.594
308.15 K, 101 kPa, x1 = 0.3 | 0.664
308.15 K, 101 kPa, x1 = 0.4 | 0.741
308.15 K, 101 kPa, x1 = 0.5 | 0.833
308.15 K, 101 kPa, x1 = 0.6 | 0.937
308.15 K, 101 kPa, x1 = 0.7 | 1.065
308.15 K, 101 kPa, x1 = 0.8 | 1.217
308.15 K, 101 kPa, x1 = 0.9 | 1.407
308.15 K, 101.3 kPa, x1 = 0.1025 | 0.54
308.15 K, 101.3 kPa, x1 = 0.2029 | 0.598
308.15 K, 101.3 kPa, x1 = 0.3843 | 0.727
308.15 K, 101.3 kPa, x1 = 0.504 | 0.833
308.15 K, 101.3 kPa, x1 = 0.6035 | 0.963
308.15 K, 101.3 kPa, x1 = 0.7049 | 1.062
308.15 K, 101.3 kPa, x1 = 0.7997 | 1.204
308.15 K, 101.3 kPa, x1 = 0.9017 | 1.398
318.15 K, 101 kPa, x1 = 0.1 | 0.482
318.15 K, 101 kPa, x1 = 0.2 | 0.53
318.15 K, 101 kPa, x1 = 0.3 | 0.587
318.15 K, 101 kPa, x1 = 0.4 | 0.654
318.15 K, 101 kPa, x1 = 0.5 | 0.731
318.15 K, 101 kPa, x1 = 0.6 | 0.817
318.15 K, 101 kPa, x1 = 0.7 | 0.921
318.15 K, 101 kPa, x1 = 0.8 | 1.047
318.15 K, 101 kPa, x1 = 0.9 | 1.201

CCCCC + C1CCCCC1
101 kPa
Conditions | viscosity [mPa·s]
293.15 K, x2 = 0.2248 | 0.287
293.15 K, x2 = 0.3367 | 0.327
293.15 K, x2 = 0.4743 | 0.39
293.15 K, x2 = 0.601 | 0.466
293.15 K, x2 = 0.7202 | 0.561
293.15 K, x2 = 0.8333 | 0.685
298.15 K, x2 = 0.176 | 0.264
298.15 K, x2 = 0.3541 | 0.321
298.15 K, x2 = 0.4788 | 0.372
298.15 K, x2 = 0.6163 | 0.447
298.15 K, x2 = 0.7478 | 0.544
298.15 K, x2 = 0.8754 | 0.68

CC(=O)O.NCCO + CCCCO
298.15 K, 101.3 kPa
Conditions | viscosity [mPa·s]
x2 = 0.088 | 1548
x2 = 0.179 | 734.1
x2 = 0.272 | 460.3
x2 = 0.369 | 325.3
x2 = 0.476 | 190.3
x2 = 0.574 | 74.63
x2 = 0.666 | 30.51
x2 = 0.776 | 19.04
x2 = 0.881 | 14.02
